We go through one molecule from publication PMC8808171, “Nonselective TRPC channel inhibition and suppression of aminoglycoside-induced premature termination codon readthrough by the small molecule AC1903” (The Journal of Biological Chemistry, 2022).

Experiment [1] concerns the target T1, TRPV1:V1 (Rattus norvegicus, UniProt O35433).
T1 construct: expressed in transfected cells; host or cells: WT HEK 293 (transient)
The experiment can be described thus: [Ca2+]i recordings (Fura-2), TRPV1:V1 in HEK 293 cells. The experiment is classed as cell-based. The procedure: (§1) Based on the findings described above, we wondered whether AC1903—which is typically used as a TRPC5 inhibitor at concentrations of 30–100 μM in cellular assays ([29], [56])—might have limited selectivity for TRPC5 channels and whether its effect on intracellular G418 levels and PTC readthrough might be the consequence of inhibition of other or multiple targets. All well-characterized TRPC channel inhibitors reported to date modulate multiple TRP(C) channels ([34], [35], [36]). […] Because limited data for the selectivity of AC1903 are available in the public domain, we decided to profile AC1903 against a selection of calcium-permeable cation channels by intracellular calcium ([Ca^2+]i) recordings using well-characterized cell lines and TRP channel activators ([46], [57], [58]), and the Ca^2+ indicator Fura-2. In these assays, cells (HEK 293, HEK T-REx, or CHO) overexpressing the relevant ion channel protein and loaded with Fura-2 AM (a cell-permeable precursor of Fura-2) were preincubated with various concentrations of AC1903 or vehicle (DMSO) for 30 min. Then, changes in ratiometric fluorescence (from background) were recorded upon addition of the respective ion channel activator.
HEK T-REx cells expressing tetracycline-inducible TRPC4, TRPC5, TRPC5–C1,TRPC4–C1, and hPiezo1 have been described previously ([46], [57], [59], [78]). Cloning of TRPC3 has been described previously ([79]). To create cells stably expressing tetracycline-inducible TRPC3, HEK T-REx cells were transfected with pcDNA4/TO/hTRPC3 using jetPRIME transfection reagent (VWR) according to manufacturer’s instructions. After 48 h cells were put under antibiotic selection using 400 μg/ml zeocin and 10 μg/ml Blasticidin S (Invivogen)). Medium changes were carried out every 2 to 3 days to remove dead cells. […]

Experiment [2] deals with T2, hPiezo1 (Homo sapiens, UniProt Q92508).
T2 construct: expressed in transfected cells; host or cells: HEK T-REx (tetracycline-induced)
T2 sequence (Q92508 whole entry): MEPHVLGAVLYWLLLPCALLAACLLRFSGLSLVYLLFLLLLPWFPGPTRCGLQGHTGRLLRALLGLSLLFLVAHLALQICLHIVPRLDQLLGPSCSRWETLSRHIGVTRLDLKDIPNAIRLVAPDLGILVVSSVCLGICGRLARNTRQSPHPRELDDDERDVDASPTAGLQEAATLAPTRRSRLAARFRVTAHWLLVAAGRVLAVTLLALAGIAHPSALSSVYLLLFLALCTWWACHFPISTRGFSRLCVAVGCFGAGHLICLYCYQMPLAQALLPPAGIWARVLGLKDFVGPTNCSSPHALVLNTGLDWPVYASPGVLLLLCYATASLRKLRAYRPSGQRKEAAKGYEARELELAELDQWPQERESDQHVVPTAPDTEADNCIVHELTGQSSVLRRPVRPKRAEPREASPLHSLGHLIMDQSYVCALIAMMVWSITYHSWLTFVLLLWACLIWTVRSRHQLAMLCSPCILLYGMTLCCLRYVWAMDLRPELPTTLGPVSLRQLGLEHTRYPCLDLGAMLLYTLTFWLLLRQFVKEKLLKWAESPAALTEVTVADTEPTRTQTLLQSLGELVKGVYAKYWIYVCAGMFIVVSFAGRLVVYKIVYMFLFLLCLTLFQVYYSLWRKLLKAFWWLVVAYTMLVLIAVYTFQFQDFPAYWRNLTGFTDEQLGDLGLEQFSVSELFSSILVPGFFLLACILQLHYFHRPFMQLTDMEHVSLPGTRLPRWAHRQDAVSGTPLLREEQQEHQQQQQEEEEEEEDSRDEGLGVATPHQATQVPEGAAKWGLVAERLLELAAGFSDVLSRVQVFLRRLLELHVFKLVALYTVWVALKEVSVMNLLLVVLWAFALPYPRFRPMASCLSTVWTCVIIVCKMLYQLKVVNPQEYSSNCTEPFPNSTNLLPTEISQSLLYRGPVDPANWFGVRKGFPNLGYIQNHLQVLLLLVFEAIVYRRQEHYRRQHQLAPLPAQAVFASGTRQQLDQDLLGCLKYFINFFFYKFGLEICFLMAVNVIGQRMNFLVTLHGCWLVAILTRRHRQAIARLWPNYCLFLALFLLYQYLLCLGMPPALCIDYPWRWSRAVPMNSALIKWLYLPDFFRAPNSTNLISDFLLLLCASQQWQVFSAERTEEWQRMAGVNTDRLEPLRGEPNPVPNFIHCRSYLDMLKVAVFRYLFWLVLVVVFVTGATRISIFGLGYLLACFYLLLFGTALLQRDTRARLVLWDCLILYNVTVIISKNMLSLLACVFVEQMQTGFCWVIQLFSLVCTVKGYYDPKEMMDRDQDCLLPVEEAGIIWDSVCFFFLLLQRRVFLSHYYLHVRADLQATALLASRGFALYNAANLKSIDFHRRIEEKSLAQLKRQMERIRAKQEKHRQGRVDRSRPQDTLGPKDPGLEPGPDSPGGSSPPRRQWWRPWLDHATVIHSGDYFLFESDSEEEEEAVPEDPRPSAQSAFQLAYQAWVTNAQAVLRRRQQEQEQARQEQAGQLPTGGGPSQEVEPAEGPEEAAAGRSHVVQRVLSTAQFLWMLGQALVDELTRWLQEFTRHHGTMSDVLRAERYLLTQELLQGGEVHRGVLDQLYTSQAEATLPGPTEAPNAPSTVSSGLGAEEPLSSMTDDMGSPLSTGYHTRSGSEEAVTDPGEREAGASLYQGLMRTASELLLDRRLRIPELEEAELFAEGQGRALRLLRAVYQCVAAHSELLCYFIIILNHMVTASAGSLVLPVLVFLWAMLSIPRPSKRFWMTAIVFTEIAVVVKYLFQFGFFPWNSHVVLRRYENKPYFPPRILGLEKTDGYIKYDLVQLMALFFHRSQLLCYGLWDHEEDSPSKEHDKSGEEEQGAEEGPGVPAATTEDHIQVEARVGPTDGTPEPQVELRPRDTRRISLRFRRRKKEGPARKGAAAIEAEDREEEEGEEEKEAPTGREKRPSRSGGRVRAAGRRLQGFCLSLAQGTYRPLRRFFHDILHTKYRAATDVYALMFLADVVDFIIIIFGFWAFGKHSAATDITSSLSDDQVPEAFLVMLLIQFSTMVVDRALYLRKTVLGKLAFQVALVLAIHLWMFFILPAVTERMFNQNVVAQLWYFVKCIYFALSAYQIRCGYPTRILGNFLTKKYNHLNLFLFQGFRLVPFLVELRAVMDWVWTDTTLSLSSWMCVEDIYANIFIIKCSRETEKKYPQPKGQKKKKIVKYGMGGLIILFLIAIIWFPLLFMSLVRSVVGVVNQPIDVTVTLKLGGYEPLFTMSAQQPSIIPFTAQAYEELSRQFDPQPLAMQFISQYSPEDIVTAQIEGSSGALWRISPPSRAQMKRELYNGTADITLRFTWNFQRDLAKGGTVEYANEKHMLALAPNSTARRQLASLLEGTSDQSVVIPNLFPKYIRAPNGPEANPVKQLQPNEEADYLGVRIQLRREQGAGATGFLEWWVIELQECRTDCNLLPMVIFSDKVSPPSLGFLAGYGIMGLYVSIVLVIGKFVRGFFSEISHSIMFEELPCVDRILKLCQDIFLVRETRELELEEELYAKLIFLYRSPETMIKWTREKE
The experiment can be described thus: [Ca2+]i recordings (Fura-2), Piezo1 in HEK T-REx cells. The experiment is classed as cell-based. The procedure:
as §1
HEK T-REx cells expressing tetracycline-inducible TRPC4, TRPC5, TRPC5–C1,TRPC4–C1, and hPiezo1 have been described previously ([46], [57], [59], [78]). […]

The structures appear in SMILES notation. “Also recorded” adds a separate entry of the source.

T1 sequence (O35433 whole entry): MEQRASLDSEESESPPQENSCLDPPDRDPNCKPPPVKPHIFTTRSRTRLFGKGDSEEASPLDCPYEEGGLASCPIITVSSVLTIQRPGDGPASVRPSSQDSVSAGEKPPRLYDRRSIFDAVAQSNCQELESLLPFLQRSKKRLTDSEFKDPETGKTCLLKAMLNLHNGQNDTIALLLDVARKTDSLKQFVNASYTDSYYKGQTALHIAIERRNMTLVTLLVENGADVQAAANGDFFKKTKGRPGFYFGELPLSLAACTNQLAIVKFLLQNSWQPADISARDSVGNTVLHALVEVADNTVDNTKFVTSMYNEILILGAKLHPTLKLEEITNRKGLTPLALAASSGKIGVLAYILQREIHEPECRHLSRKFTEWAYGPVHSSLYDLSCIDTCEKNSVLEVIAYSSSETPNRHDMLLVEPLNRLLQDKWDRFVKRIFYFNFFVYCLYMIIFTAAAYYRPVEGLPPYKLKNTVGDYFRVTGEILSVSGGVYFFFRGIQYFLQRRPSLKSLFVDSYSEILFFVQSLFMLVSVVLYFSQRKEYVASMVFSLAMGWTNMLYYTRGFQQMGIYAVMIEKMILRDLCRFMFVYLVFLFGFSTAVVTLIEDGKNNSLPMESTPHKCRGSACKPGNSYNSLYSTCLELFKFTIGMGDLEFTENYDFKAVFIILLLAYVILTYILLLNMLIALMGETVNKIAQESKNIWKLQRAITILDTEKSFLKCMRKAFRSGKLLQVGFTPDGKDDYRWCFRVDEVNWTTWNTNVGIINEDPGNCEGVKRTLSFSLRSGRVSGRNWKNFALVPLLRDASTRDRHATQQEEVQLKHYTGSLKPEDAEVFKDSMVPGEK

Consider `c1ccc(Cn2c(NCc3ccco3)nc3ccccc32)cc1` [AC1903], for which the “effect on capsaicin-activated TRPV1” value in experiment [1] (AC1903 100 μM) is on record as “small effects”. For the same molecule, the “inhibition of capsaicin-activated TRPV1” value in experiment [1] (AC1903 up to 30 μM) is given as “does not affect; also recorded: did not inhibit”. The IC50 (usually the concentration at which inhibition is half-maximal) was over 50 µM in experiment [1] (HEK 293, activator capsaicin (500 nM)) and over 100 µM in experiment [2] (HEK T-REx, activator Yoda1 (3 μM)). Also, the “inhibition of Yoda1-activated Piezo1 channels” value in experiment [2] (AC1903 up to 30 μM) is “does not affect; also recorded: did not inhibit”.
